# Assay results taken from ChEMBL document CHEMBL1126538, “A novel class of 1,3-oxathiolane nucleoside analogues having potent anti-HIV activity” (1993).
# Key:
# Format in all cases: functional
# MT4 [1] = assay: Inhibitory concentration against HIV-1 in MT-4 cell line.; details: Homo sapiens, read-out: ID50 (the source's name)
# MT4 [2] = assay: Cytotoxic activity against MT-4 cell line; details: Homo sapiens, read-out: CD50 (the source's name)
# MT4 [3] = assay: Compound was tested for its inhibitory concentration against HIV-1 in MT-4 cell line; details: Homo sapiens, read-out: ID50 (the source's name)
SMILES,IC50 (MT4 [1]) [mg/L],CC50 (MT4 [2]) [mg/L],IC50 (MT4 [3]) [mg/L]
Nc1ncnc2c1ncn2[C@@H]1COC(CO)S1 (some centres not stated),> 100,> 100,
Cc1cn([C@@H]2COC(CO)S2)c(=O)[nH]c1=O (some centres not stated),> 100,> 100,
O=c1ccn([C@@H]2COC(CO)S2)c(=O)[nH]1 (some centres not stated),> 100,> 100,
Nc1ccn([C@@H]2COC(CO)S2)c(=O)n1 (some centres not stated),> 100,> 100,
Nc1nc(=O)n([C@@H]2COC(CO)S2)cc1F (some centres not stated),> 100,> 100,
Cc1cn(C2COC(CO)S2)c(=O)[nH]c1=O (configuration not stated),> 100,> 100,
Nc1nc(=O)n(C2COC(CO)S2)cc1F (configuration not stated),2.5,> 100,
Nc1ncnc2c1ncn2[C@@H]1CO[C@H](CO)S1,50,100,
Nc1ncnc2c1ncn2[C@H]1CO[C@@H](CO)S1,1.1,100,
O=c1ccn(C2COC(CO)S2)c(=O)[nH]1 (configuration not stated),> 100,> 100,
Nc1nc(O)c2ncn(C3COC(CO)S3)c2n1 (configuration not stated),> 100,> 100,
Nc1ncnc2c1ncn2C1COC(CO)S1 (configuration not stated),2.1,100,
Nc1ccn(C2COC(CO)S2)c(=O)n1 (configuration not stated),,10,> 10
O=c1[nH]cnc2c1ncn2[C@H]1CC[C@@H](CO)O1 [DIDANOSINE],2.3,100,
Nc1ccn([C@@H]2CS[C@H](CO)O2)c(=O)n1 [LAMIVUDINE],0.13,> 100,
Cc1cn([C@H]2C[C@H](N=[N+]=[N-])[C@@H](CO)O2)c(=O)[nH]c1=O [ZIDOVUDINE],0.06,> 1,
